# Measured values taken from EP4803142A2 (Kayothera Inc., priority 2021, dated 2022).
# What was measured:
# mALDH1a2 = biological target: T1, mALDH1a2 (Mus musculus, UniProt Q62148); assay: biochemical; conditions: read-out: mAldhla2 IC50
# T1 construct: pET-Aldh1a2 transformed BL21-DE3 cultures; cell extracts
# T1 sequence (Q62148 1-518): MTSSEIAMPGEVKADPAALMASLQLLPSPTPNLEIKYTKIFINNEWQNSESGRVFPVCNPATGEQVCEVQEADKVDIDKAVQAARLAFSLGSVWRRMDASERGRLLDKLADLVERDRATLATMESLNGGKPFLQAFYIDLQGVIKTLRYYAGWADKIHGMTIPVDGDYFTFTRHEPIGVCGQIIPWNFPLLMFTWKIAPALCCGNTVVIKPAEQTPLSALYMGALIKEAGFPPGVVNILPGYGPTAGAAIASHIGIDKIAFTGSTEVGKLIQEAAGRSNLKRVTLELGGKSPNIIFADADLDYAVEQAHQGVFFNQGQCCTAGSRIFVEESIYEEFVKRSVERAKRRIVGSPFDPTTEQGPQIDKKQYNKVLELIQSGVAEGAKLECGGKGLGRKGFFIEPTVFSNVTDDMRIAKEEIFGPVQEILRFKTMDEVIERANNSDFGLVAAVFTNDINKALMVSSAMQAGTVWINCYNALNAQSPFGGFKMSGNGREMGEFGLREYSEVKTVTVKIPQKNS
# Experimental: (§1) Biological Example 5C. Aldh1a2 Enzyme Inhibition Assay
# (§2) Cell extracts were spun at 16000 x g for 5 minutes.
# (§3) Recombinant enzyme and inhibitor added immediately before assay. Reaction rate measured by resorufin fluorescence. […]
# (§4) Table 3B. IC50 values (nM) for inhibition of hALDH1a2 and mALDH1a2 of selected compounds
# hALDH1a2 = biological target: T2, hALDH1a2 (Homo sapiens, UniProt O94788); assay: biochemical; conditions: read-out: hAldhla2 IC50
# T2 construct: pET-Aldh1a2 transformed BL21-DE3 cultures; cell extracts
# T2 sequence (O94788 1-518): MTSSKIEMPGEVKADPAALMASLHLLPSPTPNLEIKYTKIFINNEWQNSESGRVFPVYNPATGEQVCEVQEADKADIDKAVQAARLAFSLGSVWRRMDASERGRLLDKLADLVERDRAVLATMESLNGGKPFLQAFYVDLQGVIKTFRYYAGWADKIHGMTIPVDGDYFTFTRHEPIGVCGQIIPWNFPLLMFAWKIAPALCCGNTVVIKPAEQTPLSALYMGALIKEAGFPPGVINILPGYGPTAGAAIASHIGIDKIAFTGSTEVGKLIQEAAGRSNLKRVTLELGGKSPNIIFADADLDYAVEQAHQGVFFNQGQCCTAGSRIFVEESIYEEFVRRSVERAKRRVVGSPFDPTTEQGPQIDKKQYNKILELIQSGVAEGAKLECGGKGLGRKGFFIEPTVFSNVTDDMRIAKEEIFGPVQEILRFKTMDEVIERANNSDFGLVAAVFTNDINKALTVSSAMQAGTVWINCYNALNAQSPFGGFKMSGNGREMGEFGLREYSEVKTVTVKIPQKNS
# Experimental: as §1, §2, §3, §4
structure (smiles),measurement,setting,value
CCc1cnc(C)cc1C(=O)Nc1cc2c(cc1F)NC(=O)CC2 [compound 8],IC50,mALDH1a2,5 µM
same,IC50,hALDH1a2,9 µM
CC1(C)Cc2cc(Nc3nc4ccccc4[nH]3)ccc2NC1=O [compound 98],IC50,mALDH1a2,1.29 µM
same,IC50,hALDH1a2,3.08 µM
CCc1cnccc1C(=O)Nc1ccc2c(c1)CC(C)(CC)C(=O)N2 (centres unmarked) [compound 62],IC50,mALDH1a2,> 10 µM
same,IC50,hALDH1a2,> 10 µM
Cc1cnccc1C(=O)Nc1ccc2c(c1)CCC(=O)N2 [compound 21],IC50,mALDH1a2,32 µM
same,IC50,hALDH1a2,30 µM
CC1(C)Cc2cc(Nc3c[nH]c4c(c3=O)CCCC4)ccc2NC1=O [compound 135],IC50,mALDH1a2,> 10 µM
same,IC50,hALDH1a2,> 10 µM
Cc1cccc2ncc(Nc3ccc4c(c3)CCC(=O)N4)cc12 [compound 101],IC50,mALDH1a2,0.935 µM
same,IC50,hALDH1a2,1.89 µM
CC1(C)Cc2cc(Nc3c[nH]c4ccccc4c3=O)ccc2NC1=O [compound 115],IC50,mALDH1a2,> 10 µM
same,IC50,hALDH1a2,> 10 µM
CC1(C)Cc2cc(Nc3ccc4cnccc4n3)ccc2NC1=O [compound 95],IC50,mALDH1a2,1.77 µM
same,IC50,hALDH1a2,10 µM
CCc1cnccc1C(=O)Nc1ccc2c(c1)C(C)(C)CC(=O)N2 [compound 19],IC50,mALDH1a2,1.05 µM
same,IC50,hALDH1a2,0.65 µM
O=S1(=O)CCc2cc(Nc3ccc4ccccc4n3)ccc2N1 [compound 102],IC50,mALDH1a2,> 10 µM
same,IC50,hALDH1a2,> 10 µM
CCc1cnccc1C(=O)Nc1ccc2c(c1)C(C)CC(=O)N2 (centres unmarked) [compound 64],IC50,mALDH1a2,5 µM
same,IC50,hALDH1a2,2.79 µM
CCc1c[nH]c(=O)cc1C(=O)Nc1ccc2c(c1)CCC(=O)N2 [compound 51],IC50,mALDH1a2,> 10 µM
same,IC50,hALDH1a2,> 10 µM
CCc1cnccc1C(=O)Nc1ccc2c(c1)CC1(CC1)C(=O)N2 [compound 61],IC50,mALDH1a2,1.81 µM
same,IC50,hALDH1a2,2.04 µM
CC1(C)Cc2cc(NC3COc4ccccc4C3)ccc2NC1=O (centres unmarked) [compound 105],IC50,mALDH1a2,> 10 µM
same,IC50,hALDH1a2,> 10 µM
CC1(C)Cc2cc(Nc3ccc4cnccc4c3)ccc2NC1=O [compound 103],IC50,mALDH1a2,5 µM
same,IC50,hALDH1a2,> 10 µM
Cc1ccc(C(=O)Nc2ccc3c(c2)CCC(=O)N3)cc1C [compound 11],IC50,mALDH1a2,> 10 µM
same,IC50,hALDH1a2,> 10 µM
CC1(C)Cc2cc(Nc3cnc4ccc(C(=O)O)cc4n3)ccc2NC1=O [compound 118],IC50,mALDH1a2,> 10 µM
same,IC50,hALDH1a2,> 10 µM
O=C1CCc2cc(Nc3cnc4ccccc4n3)ncc2N1 [compound 126],IC50,mALDH1a2,0.165 µM
same,IC50,hALDH1a2,0.214 µM
CCc1cnc(F)cc1C(=O)Nc1ccc2c(c1)CCC(=O)N2 [compound 78],IC50,mALDH1a2,0.366 µM
same,IC50,hALDH1a2,0.46 µM
C=CCc1cnccc1C(=O)Nc1ccc2c(c1)CCC(=O)N2 [compound 71],IC50,mALDH1a2,0.747 µM
same,IC50,hALDH1a2,0.963 µM
Cc1ccc(Nc2ccc3c(c2)CC(C)(C)C(=O)N3)nc1C [compound 96],IC50,mALDH1a2,> 10 µM
same,IC50,hALDH1a2,> 10 µM
CCc1cnccc1CNc1cc2c(cc1F)NC(=O)CC2 [compound 3],IC50,mALDH1a2,3.33 µM
same,IC50,hALDH1a2,4 µM
CCc1cnccc1C(=O)Nc1cc2c(cc1F)NC(=O)CC2(C)C [compound 40],IC50,mALDH1a2,3.33 µM
same,IC50,hALDH1a2,1.04 µM
N#Cc1cccc2ncc(Nc3ccc4c(c3)CCC(=O)N4)cc12 [compound 100],IC50,mALDH1a2,> 10 µM
same,IC50,hALDH1a2,> 10 µM
O=C1CCc2cc(NC(=O)c3ccnc4ccccc34)ccc2N1 [compound 52],IC50,mALDH1a2,0.117 µM
same,IC50,hALDH1a2,0.32 µM
Cc1cc(C(=O)Nc2ccc3c(c2)CCC(=O)N3)ccn1 [compound 24],IC50,mALDH1a2,100 µM
same,IC50,hALDH1a2,100 µM
Cn1ccc2nc(Nc3ccc4c(c3)CC(C)(C)C(=O)N4)ccc21 [compound 113],IC50,mALDH1a2,> 10 µM
same,IC50,hALDH1a2,> 10 µM
N#Cc1cccc2nc(Nc3ccc4c(c3)CCC(=O)N4)ccc12 [compound 86],IC50,mALDH1a2,0.084 µM
same,IC50,hALDH1a2,10 µM
COCc1cnccc1C(=O)Nc1ccc2c(c1)CCC(=O)N2 [compound 57],IC50,mALDH1a2,> 10 µM
same,IC50,hALDH1a2,> 10 µM
Cc1cnccc1/C=C/c1ccc2c(c1)CCC(=O)N2 [compound 30],IC50,mALDH1a2,11.1 µM
same,IC50,hALDH1a2,9 µM
CC1(C)Cc2cc(Nc3nc(=O)c4ccccc4[nH]3)ccc2NC1=O [compound 116],IC50,mALDH1a2,0.337 µM
same,IC50,hALDH1a2,0.305 µM
CC1(C)Cc2cc(Nc3ccc4ccccc4n3)c(F)cc2NC1=O [compound 48],IC50,mALDH1a2,0.097 µM
same,IC50,hALDH1a2,0.099 µM
O=C1CCc2cc(NCc3cc[nH]c3)c(F)cc2N1 [compound 17],IC50,mALDH1a2,10 µM
same,IC50,hALDH1a2,10 µM
CCc1cc(=O)n(C)cc1C(=O)Nc1ccc2c(c1)CCC(=O)N2 [compound 76],IC50,mALDH1a2,4.31 µM
same,IC50,hALDH1a2,6.56 µM
CC(C)=Cc1cnc(C)cc1C(=O)Nc1ccc2c(c1)CC(C)(C)C(=O)N2 [compound 69],IC50,mALDH1a2,> 10 µM
same,IC50,hALDH1a2,> 10 µM
CC1(C)Cc2cc(Nc3ccc4c(n3)CCCC4=O)ccc2NC1=O [compound 127],IC50,mALDH1a2,1.29 µM
same,IC50,hALDH1a2,0.894 µM
CCc1cnccc1C(=O)Nc1cc2ccc(=O)[nH]c2cc1F [compound 39],IC50,mALDH1a2,8 µM
same,IC50,hALDH1a2,3.5 µM
O=C1CCc2cc(NCc3ccccc3)ccc2N1 [compound 14],IC50,mALDH1a2,10 µM
same,IC50,hALDH1a2,10 µM
CCc1cnccc1C(=O)Nc1cc2c(cc1C#N)NC(=O)CC2 [compound 84],IC50,mALDH1a2,> 10 µM
same,IC50,hALDH1a2,> 10 µM
N#Cc1ccc2nc(Nc3ccc4c(c3)CCC(=O)N4)ccc2c1 [compound 88],IC50,mALDH1a2,> 10 µM
same,IC50,hALDH1a2,> 10 µM
CCc1cnc(C)cc1C(=O)Nc1ccc2c(c1)CCC(=O)N2 [compound 56],IC50,mALDH1a2,1.26 µM
same,IC50,hALDH1a2,10 µM
CCc1cnccc1/C=C/c1ccc2c(c1)CCC(=O)N2 [compound 33],IC50,mALDH1a2,0.143 µM
same,IC50,hALDH1a2,0.258 µM
O=C1CCc2cc(NC(=O)c3ccncc3C(F)(F)F)ccc2N1 [compound 54],IC50,mALDH1a2,0.224 µM
same,IC50,hALDH1a2,1.06 µM
CCc1cnccc1C(=O)Nc1ccc2c(c1)CC(C)(C)C(=O)N2 [compound 18],IC50,mALDH1a2,1.74 µM
same,IC50,hALDH1a2,2.13 µM
CCc1cnccc1C(=O)Nc1cc2c(cc1F)NC(=O)C(C)(C)C2 [compound 38],IC50,mALDH1a2,> 10 µM
same,IC50,hALDH1a2,> 10 µM
Cc1ccc2ccc(Nc3ccc4c(c3)CCC(=O)N4)nc2c1 [compound 91],IC50,mALDH1a2,0.594 µM
same,IC50,hALDH1a2,0.998 µM
